Measurements: ChEMBL document CHEMBL4304757, “Synthetic heterocyclic candidates as promising α-glucosidase inhibitors: An overview” (Eur J Med Chem, 2019)

Columns and labels:
Alpha glucosidase [1] = target: T1, Alpha glucosidase (Homo sapiens, UniProt O43451+P10253+P14410+Q2M2H8); assay: Inhibition of alpha-glucosidase (unknown origin); format: protein assay
Alpha glucosidase [2] = target: T1, Alpha glucosidase; assay: Inhibition of alpha-glucosidase (unknown origin) using p-nitrophenyl-alpha-d-glucopyranoside as substrate preincubated for 15 mins followed by substrate addition measured after 30 mins; format: protein assay

Row | Compound | IC50 (Alpha glucosidase [1]) | IC50 (Alpha glucosidase [2])
1 | Cn1cc(-c2nnc(-c3ccc(C(c4c[nH]c5ccc(Br)cc45)c4c[nH]c5ccc(Br)cc45)cc3)o2)c2ccccc21 | 20 to 292 µM | 
2 | Cc1ccc(-c2csc(N/N=C3\C(=O)Nc4c(C)cc(C)cc43)n2)cc1 |  | 5.3 to 35 µM
3 | Cc1[nH]c2ccccc2c1-c1nnc(-c2ccc(C(c3cn(C)c4ccccc34)c3cn(C)c4ccccc34)cc2)o1 | 20 to 292 µM | 
4 | Cc1c(C(c2ccc(-c3nnc(-c4cn(C)c5ccccc45)o3)cc2)c2c(C)n(C)c3ccccc23)c2ccccc2n1C | 20 to 292 µM | 
5 | Cc1ccc(C(c2c[nH]c3ccc(C(=O)NNS(=O)(=O)c4cccc([N+](=O)[O-])c4)cc23)c2c[nH]c3ccc(C(=O)NNS(=O)(=O)c4cccc([N+](=O)[O-])c4)cc23)cc1 |  | 2.1 µM
6 | O=C(C[C@@H](c1ccc(Cl)cc1)c1c[nH]c2ccccc12)c1ccccc1 | 4.3 to 43 µM | 
7 | CCOC(=O)CC(=O)OCC [MALONIC ACID DIETHYL ESTER] | 5 to 16 µM | 
8 | O=c1ccc2ccc(OCC(O)CSc3nnc(-c4ccc(F)cc4)c(-c4ccc(F)cc4)n3)cc2o1 (stereo not given) |  | 32 to 148 µM
9 | Cc1ccc2c(c1)/C(=N/Nc1nc(-c3ccc(O)cc3)cs1)C(=O)N2 |  | 5.3 to 35 µM
10 | Cc1cc(C)c2c(c1)/C(=N/Nc1nc(-c3ccc(F)cc3)cs1)C(=O)N2 |  | 5.3 to 35 µM
11 | COc1ccc(-c2csc(N/N=C3\C(=O)N(Cc4ccccc4F)c4ccc(C)cc43)n2)cc1 |  | 5.3 to 35 µM
12 | Cc1ccc(-c2csc(NC(=O)CSc3nnc(-c4ccc(Br)cc4)c(-c4ccc(Br)cc4)n3)n2)cc1 |  | 2.8 to 14 µM
13 | O=C(CSc1nnc(-c2ccc(Br)cc2)c(-c2ccc(Br)cc2)n1)Nc1nc(-c2ccccc2)cs1 |  | 2.8 to 14 µM
14 | COc1cc(Br)ccc1O[C@H](C)Cn1cc(-c2ccccc2)nn1 |  | 14 to 218 µM
15 | Cc1ccc(C(c2c[nH]c3ccc(C(=O)NNS(=O)(=O)c4ccc(Cl)c(Cl)c4)cc23)c2c[nH]c3ccc(C(=O)NNS(=O)(=O)c4ccc(Cl)c(Cl)c4)cc23)cc1 |  | 0.1 to 5.1 µM
16 | O=C1Nc2ccccc2C1(c1cn(Cc2ccccc2F)c2ccccc12)c1cn(Cc2ccccc2F)c2ccccc12 |  | 5.9 µM
17 | O=C1Nc2ccccc2/C1=N/Nc1nc(-c2ccc(F)cc2)cs1 |  | 5.3 to 35 µM
18 | O=C1Nc2ccc(Br)cc2C1(c1c[nH]c2ccccc12)c1c[nH]c2ccccc12 |  | 5.9 to 145 µM
19 | O=C1Nc2ccccc2/C1=N/Nc1nc(-c2ccc(Cl)cc2)cs1 |  | 5.3 to 35 µM
20 | CCCn1cc(C2(c3cn(CCC)c4ccccc34)C(=O)Nc3ccccc32)c2ccccc21 |  | 5.9 to 145 µM
21 | Cc1ccc2c(c1)C(c1c[nH]c3ccccc13)(c1c[nH]c3ccccc13)C(=O)N2 |  | 5.9 to 145 µM
22 | O=C1Nc2ccccc2C1(c1cn(Cc2ccc(Br)cc2)c2ccccc12)c1cn(Cc2ccc(Br)cc2)c2ccccc12 |  | 5.9 to 145 µM
23 | O=c1oc2ccccc2cc1OCC(O)CSc1nnc(-c2ccco2)c(-c2ccco2)n1 (stereo not given) |  | 32 to 148 µM
24 | O=C1Nc2ccccc2C1(c1cn(Cc2cccc(F)c2)c2ccccc12)c1cn(Cc2cccc(F)c2)c2ccccc12 |  | 5.9 to 145 µM
25 | O=c1ccc2ccc(OCC(O)CSc3nnc(-c4cccc(F)c4)c(-c4cccc(F)c4)n3)cc2o1 (stereo not given) |  | 32 to 148 µM
26 | Cc1ccc(-c2csc(NC(=O)CSc3nnc(-c4ccc(F)cc4)c(-c4ccc(F)cc4)n3)n2)cc1 |  | 2.8 to 14 µM
27 | O=C(CSc1nnc(-c2ccc(F)cc2)c(-c2ccc(F)cc2)n1)Nc1nc(-c2ccccc2)cs1 |  | 2.8 to 14 µM

Row | Compound | IC50 (Alpha glucosidase [1]) | IC50 (Alpha glucosidase [2])
28 | O=C(CSc1nnc(-c2ccc(F)cc2)c(-c2ccc(F)cc2)n1)Nc1nc(-c2ccc(Cl)cc2)cs1 |  | 2.8 to 14 µM
29 | O=C(CSc1nnc(-c2ccc(F)cc2)c(-c2ccc(F)cc2)n1)Nc1nc(-c2ccc(Br)cc2)cs1 |  | 2.8 to 14 µM
30 | COc1ccc(-c2csc(NC(=O)CSc3nnc(-c4ccc(Br)cc4)c(-c4ccc(Br)cc4)n3)n2)cc1 |  | 2.8 µM
31 | O=C(CSc1nnc(-c2ccccc2)c(-c2ccccc2)n1)Nc1nc(-c2ccc(Cl)cc2)cs1 |  | 2.8 to 14 µM
32 | COC(=O)c1cn(C[C@@H](C)Oc2ccc(Br)cc2OC)nn1 |  | 14 to 218 µM
33 | COc1ccc(-c2ccc(O[C@H](C)Cn3cc(-c4ccc(C(F)(F)F)cc4)nn3)c(OC)c2)cc1 |  | 14 µM
34 | CN1C(=O)/C(=N\Nc2nc(-c3ccc(F)cc3)cs2)c2ccccc21 |  | 5.3 to 35 µM
35 | CC(C)Cn1cc(C2(c3cn(CC(C)C)c4ccccc34)C(=O)Nc3ccccc32)c2ccccc21 |  | 5.9 to 145 µM
36 | Cc1ccc2c(c1)/C(=N/Nc1nc(-c3ccc(O)cc3)cs1)C(=O)N2Cc1ccccc1F |  | 5.3 µM
37 | Cc1ccc(C(c2c[nH]c3ccc(C(=O)NNS(=O)(=O)c4ccccc4[N+](=O)[O-])cc23)c2c[nH]c3ccc(C(=O)NNS(=O)(=O)c4ccccc4[N+](=O)[O-])cc23)cc1 |  | 2.1 µM
38 | Cc1ccc(C(c2c[nH]c3ccc(C(=O)NNS(=O)(=O)c4ccc([N+](=O)[O-])cc4)cc23)c2c[nH]c3ccc(C(=O)NNS(=O)(=O)c4ccc([N+](=O)[O-])cc4)cc23)cc1 |  | 2.1 µM
39 | O=c1oc2ccccc2cc1OCC(O)CSc1nnc(-c2cccc(Br)c2)c(-c2cccc(Br)c2)n1 (stereo not given) |  | 32 µM
40 | Cc1ccc(-c2csc(N/N=C3\C(=O)Nc4ccccc43)n2)cc1 |  | 5.3 to 35 µM
41 | O=C1Nc2ccccc2C1(c1c[nH]c2ccccc12)c1c[nH]c2ccccc12 |  | 5.9 to 145 µM
42 | COc1ccc(-c2csc(NC(=O)CSc3nnc(-c4ccccc4)c(-c4ccccc4)n3)n2)cc1 |  | 2.8 to 14 µM
43 | Cc1ccc(C(c2c[nH]c3ccc(C(=O)NNS(=O)(=O)c4ccccc4Cl)cc23)c2c[nH]c3ccc(C(=O)NNS(=O)(=O)c4ccccc4Cl)cc23)cc1 |  | 0.1 to 5.1 µM
44 | Cc1ccc(C(c2c[nH]c3ccc(C(=O)NNS(=O)(=O)c4cc(Cl)cc(Cl)c4)cc23)c2c[nH]c3ccc(C(=O)NNS(=O)(=O)c4cc(Cl)cc(Cl)c4)cc23)cc1 |  | 0.1 to 5.1 µM
45 | COc1cc(-c2ccc([N+](=O)[O-])cc2)ccc1O[C@H](C)Cn1cc(-c2ccc(C(F)(F)F)cc2)nn1 |  | 14 to 218 µM
46 | Cc1cc(C)c2c(c1)/C(=N/Nc1nc(-c3ccc(Br)cc3)cs1)C(=O)N2 |  | 5.3 to 35 µM
47 | COc1cc(-c2ccc(C)cc2)ccc1O[C@H](C)Cn1cc(-c2ccc(C(F)(F)F)cc2)nn1 |  | 14 to 218 µM
48 | Cc1ccc(C(c2c[nH]c3ccc(C(=O)NNS(=O)(=O)c4ccc(C)cc4)cc23)c2c[nH]c3ccc(C(=O)NNS(=O)(=O)c4ccc(C)cc4)cc23)cc1 |  | 0.1 to 5.1 µM
49 | O=c1oc2ccccc2cc1OCC(O)CSc1nnc(-c2ccc(F)cc2)c(-c2ccc(F)cc2)n1 (stereo not given) |  | 32 to 148 µM
50 | Cc1ccc(C(c2c[nH]c3ccc(C(=O)NNS(=O)(=O)c4ccccc4Br)cc23)c2c[nH]c3ccc(C(=O)NNS(=O)(=O)c4ccccc4Br)cc23)cc1 |  | 0.1 to 5.1 µM
51 | Cc1ccc(-c2csc(NC(=O)CSc3nnc(-c4ccccc4)c(-c4ccccc4)n3)n2)cc1 |  | 2.8 to 14 µM
52 | O=C(CSc1nnc(-c2ccc(F)cc2)c(-c2ccc(F)cc2)n1)Nc1nc(-c2ccc(F)cc2)cs1 |  | 2.8 to 14 µM
53 | Cc1ccc(C(c2c[nH]c3ccc(C(=O)NNS(=O)(=O)c4ccc(Cl)cc4Cl)cc23)c2c[nH]c3ccc(C(=O)NNS(=O)(=O)c4ccc(Cl)cc4Cl)cc23)cc1 |  | 0.1 to 5.1 µM
54 | Cc1ccc(C(c2c[nH]c3ccc(C(=O)NNS(=O)(=O)c4ccc([N+](=O)[O-])cc4[N+](=O)[O-])cc23)c2c[nH]c3ccc(C(=O)NNS(=O)(=O)c4ccc([N+](=O)[O-])cc4[N+](=O)[O-])cc23)cc1 |  | 0.5 µM

Row | Compound | IC50 (Alpha glucosidase [1]) | IC50 (Alpha glucosidase [2])
55 | Cc1ccc(C(c2c[nH]c3ccc(C(=O)NNS(=O)(=O)c4ccc(Br)cc4)cc23)c2c[nH]c3ccc(C(=O)NNS(=O)(=O)c4ccc(Br)cc4)cc23)cc1 |  | 0.1 to 5.1 µM
56 | COc1cc(Br)ccc1O[C@H](C)Cn1cc(-c2ccc(F)cc2)nn1 |  | 14 to 218 µM
57 | O=c1ccc2ccc(OCC(O)CSc3nnc(-c4ccccc4)c(-c4ccccc4)n3)cc2o1 (stereo not given) |  | 32 to 148 µM
58 | O=C(CSc1nnc(-c2ccccc2)c(-c2ccccc2)n1)Nc1nc(-c2ccccc2)cs1 |  | 2.8 to 14 µM
59 | Cc1ccc(C(c2c[nH]c3ccc(C(=O)NNS(=O)(=O)c4cccc(Cl)c4Cl)cc23)c2c[nH]c3ccc(C(=O)NNS(=O)(=O)c4cccc(Cl)c4Cl)cc23)cc1 |  | 0.1 to 5.1 µM
60 | COc1cc(Br)ccc1O[C@H](C)Cn1cc(-c2ccc(C(F)(F)F)cc2)nn1 |  | 14 to 218 µM
61 | O=C1Nc2ccc(Cl)cc2/C1=N/Nc1nc(-c2ccc(Br)cc2)cs1 |  | 5.3 to 35 µM
62 | COc1ccc(-c2csc(N/N=C3\C(=O)N(C)c4ccccc43)n2)cc1 |  | 5.3 to 35 µM
63 | O=C(CSc1nnc(-c2ccc(Br)cc2)c(-c2ccc(Br)cc2)n1)Nc1nc(-c2ccc(F)cc2)cs1 |  | 2.8 to 14 µM
64 | Cc1ccc(C(c2c[nH]c3ccc(C(=O)NNS(=O)(=O)c4cc(Cl)c(Cl)cc4Cl)cc23)c2c[nH]c3ccc(C(=O)NNS(=O)(=O)c4cc(Cl)c(Cl)cc4Cl)cc23)cc1 |  | 0.3 to 2.5 µM
65 | O=c1ccc2ccc(OCC(O)CSc3nnc(-c4ccco4)c(-c4ccco4)n3)cc2o1 (stereo not given) |  | 32 to 148 µM
66 | Cn1cc(C2(c3cn(C)c4ccccc34)C(=O)Nc3ccccc32)c2ccccc21 |  | 5.9 to 145 µM
67 | Cc1ccc(-c2csc(N/N=C3\C(=O)Nc4ccc(F)cc43)n2)cc1 |  | 5.3 to 35 µM
68 | O=C1Nc2ccccc2C1(c1cn(Cc2ccccc2Cl)c2ccccc12)c1cn(Cc2ccccc2Cl)c2ccccc12 |  | 5.9 to 145 µM
69 | O=C(CSc1nnc(-c2ccccc2)c(-c2ccccc2)n1)Nc1nc(-c2ccc(Br)cc2)cs1 |  | 2.8 to 14 µM
70 | O=C1Nc2ccc(F)cc2/C1=N/Nc1nc(-c2ccc(F)cc2)cs1 |  | 5.3 to 35 µM
71 | Cc1ccc(C(c2c[nH]c3ccc(C(=O)NNS(=O)(=O)c4cc(Cl)ccc4Cl)cc23)c2c[nH]c3ccc(C(=O)NNS(=O)(=O)c4cc(Cl)ccc4Cl)cc23)cc1 |  | 0.1 to 5.1 µM
72 | O=C(CSc1nnc(-c2ccc(Br)cc2)c(-c2ccc(Br)cc2)n1)Nc1nc(-c2ccc(Cl)cc2)cs1 |  | 2.8 to 14 µM
73 | CCCCn1cc(C2(c3cn(CCCC)c4ccccc34)C(=O)Nc3ccccc32)c2ccccc21 |  | 5.9 to 145 µM
74 | CC(C)n1cc(C2(c3cn(C(C)C)c4ccccc34)C(=O)Nc3ccccc32)c2ccccc21 |  | 5.9 to 145 µM
75 | Cc1ccc(-c2csc(N/N=C3\C(=O)N(C)c4ccccc43)n2)cc1 |  | 5.3 to 35 µM
76 | O=C(CSc1nnc(-c2ccccc2)c(-c2ccccc2)n1)Nc1nc(-c2ccc(F)cc2)cs1 |  | 2.8 to 14 µM
77 | COc1cc(-c2ccc(F)cc2)ccc1O[C@H](C)Cn1cc(-c2ccc(C(F)(F)F)cc2)nn1 |  | 14 to 218 µM
78 | O=C(CSc1nnc(-c2ccc(Br)cc2)c(-c2ccc(Br)cc2)n1)Nc1nc(-c2ccc(Br)cc2)cs1 |  | 2.8 to 14 µM
79 | Cc1ccc(-c2csc(N/N=C3\C(=O)N(Cc4ccccc4F)c4ccc(C)cc43)n2)cc1 |  | 5.3 to 35 µM
80 | O=C1Nc2ccccc2C1(c1cn(Cc2ccccc2)c2ccccc12)c1cn(Cc2ccccc2)c2ccccc12 |  | 5.9 to 145 µM
